Source: patent US8461329B2, “Isoquinoline derivative” (Taisho Pharmaceutical Co., Ltd., priority 2008, dated 2013)

biological target: T1, CRTH2 (KB8 cells) (Homo sapiens, UniProt Q9Y5Y4); assay: CRTH2 antagonist test (PGD2-induced intracellular calcium ion concentration increase in KB8 cells); type: cell-based; conditions: PGD2 final concentration 100 nM, Fluo-4-AM fluorescence, read-out: antagonist activity (IC50 value, inhibition of calcium ion concentration increase)
T1 construct: host or cells: KB8 cells (human CRTH2 expression cell)
T1 sequence (Q9Y5Y4 1-395): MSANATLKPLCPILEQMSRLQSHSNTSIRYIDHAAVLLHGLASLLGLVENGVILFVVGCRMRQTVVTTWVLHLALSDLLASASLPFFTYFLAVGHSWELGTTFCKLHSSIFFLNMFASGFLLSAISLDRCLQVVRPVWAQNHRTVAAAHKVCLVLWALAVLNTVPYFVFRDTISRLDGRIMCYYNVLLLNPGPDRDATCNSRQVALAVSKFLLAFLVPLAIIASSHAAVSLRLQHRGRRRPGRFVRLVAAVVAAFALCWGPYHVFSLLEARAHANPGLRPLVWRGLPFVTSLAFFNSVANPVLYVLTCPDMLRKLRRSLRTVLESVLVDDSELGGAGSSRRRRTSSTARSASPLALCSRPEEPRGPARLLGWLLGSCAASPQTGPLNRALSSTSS
Method: The antagonist activity of the compound of the present invention was considered by using the intracellular calcium ion concentration increase reaction induced when the prostaglandin D2 was added to KB8 cells.
Fluo-4-AM (4-(6-acetoxymethoxy-2,7-difluoro-3-oxo-9-xanthenyl)-4′-methyl-2,2′-(ethylenedioxy)dianilide-N,N,N′,N′-tetraacetic acid tetrakis(acetoxymethyl) ester (SIGMA, final concentration: 1 μM) was added to KB8 cells, and the cells were incubated at 37° C. for 30 min, washed with phosphate buffer (Invitrogen), and then suspended in Hank's balanced salt solution (Invitrogen)) containing a reaction buffer solution (10 mM HEPES (Invitrogen), and 1 mM calcium chloride (SIGMA). The suspension was dispensed in a 96 well plate (Nunc) so that 2×10^5 cells/well were placed, and the compound of the present invention and PGD2 (final concentration: 100 nM) were added. The fluorescence intensity thereof was measured over time by using FDSS6000 (Hamamatsu Photonics), and thus the maximum fluorescence intensity value “d” was obtained. The same procedure was carried out in the absence of the compound, and the maximum fluorescence intensity value “e” was obtained; and the same procedure was carried out in the absence of the compound and […], and the maximum fluorescence intensity value “f” was obtained.
The calcium ion concentration increase inhibition rate of a compound was calculated by the following calculation formula: Inhibitory rate(%)=[1−(d−f)/(e−f)]×100
That is to say, by using calcium ion concentration increase inhibitory rates of compounds to be tested having various concentrations, the IC50 value was calculated according to a dose-dependent inhibition curve analyzed by using XLfit (IDBS) as a data analysis software, and the value was defined as an indicator of the antagonist activity. In Tables, A denotes an inhibitory activity showing the IC50 value of less than 50 nM; B denotes an inhibitory activity showing the IC50 value of 50 nM or greater and less than 500 nM; C denotes an inhibitory activity showing the IC50 value of 500 nM or greater and less than 1000 nM; and D denotes an inhibitory activity showing the IC50 value of 1000 nM or greater.

Row | Structure (SMILES) | IC50 [nM]
1 | O=C(O)Cc1cnc(C(=O)c2ccc(NC(=O)c3ccccc3Cl)cc2)c2ccccc12 [Example 24] | ≥ 1000
2 | O=C(O)Cc1cnc(C(=O)c2ccc(NC(=O)c3ccccc3Br)cc2)c2ccccc12 [Example 25] | ≥ 1000
3 | O=C(O)Cc1cnc(C(=O)c2ccc(NC(=O)c3cccc(Cl)c3Cl)cc2)c2ccccc12 [Example 30] | 500 to 1000
4 | O=C(O)Cc1cnc(C(=O)c2ccc(NC(=O)c3c(Cl)cccc3Cl)cc2)c2ccccc12 [Example 33] | ≥ 1000
5 | O=C(O)Cc1cnc(C(=O)c2ccc(NC(=O)c3c(F)cccc3Cl)cc2)c2ccccc12 [Example 36] | ≥ 1000
6 | O=C(O)Cc1cnc(C(=O)c2ccc(NC(=O)c3ccccc3F)cc2)c2ccccc12 [Example 39] | 500 to 1000
7 | COc1ccccc1C(=O)Nc1ccc(C(=O)c2ncc(CC(=O)O)c3ccccc23)cc1 [Example 40] | ≥ 1000
8 | O=C(O)Cc1cnc(C(=O)c2ccc(NC(=O)c3cc(F)ccc3Cl)cc2)c2ccccc12 [Example 42] | 500 to 1000
9 | O=C(O)Cc1cnc(C(=O)c2ccc(NC(=O)c3ccc(F)cc3Cl)cc2)c2ccccc12 [Example 47] | 500 to 1000
10 | O=C(O)Cc1cnc(C(=O)c2ccc(NC(=O)c3c(Cl)cc(Cl)cc3Cl)cc2)c2ccccc12 [Example 48] | ≥ 1000
11 | Cc1ccc(Cl)c(C(=O)Nc2ccc(C(=O)c3ncc(CC(=O)O)c4ccccc34)cc2)c1F [Example 49] | ≥ 1000
12 | O=C(O)Cc1cnc(C(=O)c2ccc(NC(=O)c3ccncc3)cc2)c2ccccc12 [Example 51] | ≥ 1000
13 | O=C(O)Cc1cnc(C(=O)c2ccc(NC(=O)c3ncccn3)cc2)c2ccccc12 [Example 55] | 500 to 1000
14 | O=C(O)Cc1cnc(C(=O)c2ccc(NC(=O)c3cscn3)cc2)c2ccccc12 [Example 58] | ≥ 1000
15 | Cc1cc(F)ccc1C(=O)Nc1ccc(C(=O)c2ncc(CC(=O)O)c3ccccc23)cc1 [Example 61] | 50 to 500
16 | Cc1ccc(F)cc1C(=O)Nc1ccc(C(=O)c2ncc(CC(=O)O)c3ccccc23)cc1 [Example 62] | 50 to 500
17 | COc1cc(C(=O)Nc2ccc(C(=O)c3ncc(CC(=O)O)c4ccccc34)cc2)cc(OC)c1OC [Example 63] | 50 to 500

Row | Structure (SMILES) | IC50 [nM]
18 | CC(C)=CC(=O)Nc1ccc(C(=O)c2ncc(CC(=O)O)c3ccccc23)cc1 [Example 65] | 500 to 1000
19 | O=C(O)Cc1cnc(C(=O)c2ccc(NC(=O)c3cccnc3)cc2)c2ccccc12 [Example 66] | ≥ 1000
20 | O=C(O)Cc1cnc(C(=O)c2ccc(NC(=O)c3ccc4ncccc4c3)cc2)c2ccccc12 [Example 67] | 50 to 500
21 | Cc1ccc(S(=O)(=O)NCC(=O)Nc2ccc(C(=O)c3ncc(CC(=O)O)c4ccccc34)cc2)cc1 [Example 68] | 50 to 500
22 | O=C(O)Cc1cnc(C(=O)c2ccc(NC(=O)c3cnccn3)cc2)c2ccccc12 [Example 69] | ≥ 1000
23 | O=C(O)Cc1cnc(C(=O)c2ccc(NC(=O)c3cccc(Cl)c3F)cc2)c2ccccc12 [Example 70] | 50 to 500
24 | O=C(O)Cc1cnc(C(=O)c2ccc(NC(=O)c3cccc(F)c3)cc2)c2ccccc12 [Example 71] | 50 to 500
25 | CS(=O)(=O)c1ccc(C(=O)Nc2ccc(C(=O)c3ncc(CC(=O)O)c4ccccc34)cc2)cc1 [Example 74] | 50 to 500
26 | O=C(O)Cc1cnc(C(=O)c2ccc(NC(=O)C3CCCCC3)cc2)c2ccccc12 [Example 76] | 50 to 500
27 | O=C(O)Cc1cnc(C(=O)c2ccc(NC(=O)c3ccc(C(=O)O)cc3)cc2)c2ccccc12 [Example 79] | ≥ 1000
28 | CCCCC(=O)Nc1ccc(C(=O)c2ncc(CC(=O)O)c3ccccc23)cc1 [Example 80] | 50 to 500
29 | O=C(O)Cc1cnc(C(=O)c2ccc(NC(=O)C3CCOCC3)cc2)c2ccccc12 [Example 81] | ≥ 1000
30 | O=C(O)Cc1cnc(C(=O)c2ccc(NC(=O)c3cnc4ccccc4n3)cc2)c2ccccc12 [Example 86] | 50 to 500
31 | O=C(O)Cc1cnc(C(=O)c2ccc(NC(=O)COc3ccc(Cl)cc3)cc2)c2ccccc12 [Example 87] | 50 to 500
32 | O=C(O)Cc1cnc(C(=O)c2ccc(NC(=O)C3=CCCCC3)cc2)c2ccccc12 [Example 90] | 50 to 500
33 | O=C(O)Cc1cnc(C(=O)c2ccc(NC(=O)c3c[nH]c4ncccc34)cc2)c2ccccc12 [Example 95] | 50 to 500

Further lines, results first:

Row | IC50 [nM] | Structure (SMILES)
34 | 50 to 500 | Cc1ccccc1C(=O)Nc1ccc(C(=O)c2ncc(CC(=O)O)c3ccccc23)cc1 [Example 26]
35 | < 50 | O=C(O)Cc1cnc(C(=O)c2ccc(NC(=O)c3ccc(F)cc3)cc2)c2ccccc12 [Example 28]
36 | < 50 | O=C(O)Cc1cnc(C(=O)c2ccc(NC(=O)c3ccc(Cl)c(F)c3)cc2)c2ccccc12 [Example 31]
37 | < 50 | O=C(O)Cc1cnc(C(=O)c2ccc(NC(=O)c3ccc(Br)cc3)cc2)c2ccccc12 [Example 32]
38 | < 50 | O=C(O)Cc1cnc(C(=O)c2ccc(NC(=O)c3ccc(F)c(F)c3)cc2)c2ccccc12 [Example 35]
39 | < 50 | O=C(O)Cc1cnc(C(=O)c2ccc(NC(=O)c3cc(Cl)cc(Cl)c3)cc2)c2ccccc12 [Example 37]
40 | < 50 | O=C(O)Cc1cnc(C(=O)c2ccc(NC(=O)c3ccccc3)cc2)c2ccccc12 [Example 38]
41 | 50 to 500 | O=C(O)Cc1cnc(C(=O)c2ccc(NC(=O)c3ccc(Cl)cc3Cl)cc2)c2ccccc12 [Example 41]
42 | 50 to 500 | O=C(O)Cc1cnc(C(=O)c2ccc(NC(=O)c3cc(Cl)ccc3Cl)cc2)c2ccccc12 [Example 43]
43 | 50 to 500 | Cc1ccc(C)c(C(=O)Nc2ccc(C(=O)c3ncc(CC(=O)O)c4ccccc34)cc2)c1 [Example 44]
44 | 50 to 500 | O=C(O)Cc1cnc(C(=O)c2ccc(NC(=O)c3cc(Cl)cc(Cl)c3Cl)cc2)c2ccccc12 [Example 45]
45 | 50 to 500 | O=C(O)Cc1cnc(C(=O)c2ccc(NC(=O)c3cccc4ccccc34)cc2)c2ccccc12 [Example 46]
46 | 50 to 500 | O=C(O)Cc1cnc(C(=O)c2ccc(NC(=O)c3ccc(F)c(F)c3F)cc2)c2ccccc12 [Example 52]
47 | 50 to 500 | O=C(O)Cc1cnc(C(=O)c2ccc(NC(=O)CC34CC5CC(CC(C5)C3)C4)cc2)c2ccccc12 [Example 53]
48 | < 50 | O=C(O)Cc1cnc(C(=O)c2ccc(NC(=O)c3ccc4c(c3)CCCC4)cc2)c2ccccc12 [Example 54]
49 | 50 to 500 | O=C(O)Cc1cnc(C(=O)c2ccc(NC(=O)c3cc(F)c(Cl)cc3Cl)cc2)c2ccccc12 [Example 56]
50 | 50 to 500 | O=C(O)Cc1cnc(C(=O)c2ccc(NC(=O)C3(c4ccc(Cl)cc4)CCCC3)cc2)c2ccccc12 [Example 59]
51 | 50 to 500 | O=C(O)Cc1cnc(C(=O)c2ccc(NC(=O)C3Cc4ccccc4C3)cc2)c2ccccc12 [Example 60]
52 | < 50 | C=Cc1ccc(C(=O)Nc2ccc(C(=O)c3ncc(CC(=O)O)c4ccccc34)cc2)cc1 [Example 64]
53 | < 50 | COc1cccc(C(=O)Nc2ccc(C(=O)c3ncc(CC(=O)O)c4ccccc34)cc2)c1 [Example 72]
54 | < 50 | Cc1cccc(C(=O)Nc2ccc(C(=O)c3ncc(CC(=O)O)c4ccccc34)cc2)c1 [Example 73]
55 | < 50 | O=C(O)Cc1cnc(C(=O)c2ccc(NC(=O)CCC3CCCCC3)cc2)c2ccccc12 [Example 77]
56 | < 50 | C/C(=C\c1ccccc1)C(=O)Nc1ccc(C(=O)c2ncc(CC(=O)O)c3ccccc23)cc1 [Example 78]
57 | < 50 | COc1ccc(/C=C/C(=O)Nc2ccc(C(=O)c3ncc(CC(=O)O)c4ccccc34)cc2)cc1 [Example 84]
58 | < 50 | O=C(O)Cc1cnc(C(=O)c2ccc(NC(=O)c3c[nH]c4ccccc34)cc2)c2ccccc12 [Example 85]
59 | < 50 | O=C(O)Cc1cnc(C(=O)c2ccc(NC(=O)c3csc4ccccc34)cc2)c2ccccc12 [Example 88]
60 | < 50 | O=C(O)Cc1cnc(C(=O)c2ccc(NC(=O)c3ccc(O)cc3)cc2)c2ccccc12 [Example 89]
61 | < 50 | O=C(O)Cc1cnc(C(=O)c2ccc(NC(=O)c3ccc(C(=O)c4ccccc4)cc3)cc2)c2ccccc12 [Example 91]
62 | < 50 | O=C(O)Cc1cnc(C(=O)c2ccc(NC(=O)c3ccc4ccccc4n3)cc2)c2ccccc12 [Example 93]
63 | < 50 | O=C(O)Cc1cnc(C(=O)c2ccc(NC(=O)c3cc4c([nH]3)CCCC4)cc2)c2ccccc12 [Example 94]
